Measured values: patent US8691286B2, “Sputum dissolving suctioning solution for endotracheal and tracheostomy tubes” (Teleflex Medical Incorporated, priority 2009, dated 2014)

Assay: Effective concentration of glycerol (Example 2; sputum dried 4 hours, 15 minutes incubation in third cycle)
Parameters: species or system Human
Conditions: glycerol and dextran sulfate combination in 0.85% NaCl
Description: Test solutions containing different concentrations of glycerol and dextran sulfate (w/v) were prepared in 0.85% normal saline. All steps were performed at 37° C. unless specified otherwise. Each well of a 48 well microtitre plate was pre-wetted with a test solution for 2 hours. Human sputum (20 μl) was then allowed to dry for 2 hours on the pre-wetted surface, followed by incubation with 100 μl of the test solution for 15 minutes to dissolve the dried sputum, and subsequent removal of the solution. The complete cycle of sputum drying, incubation with the test solution and removal, was repeated three times. In the third and final cycle, the dried sputum was incubated with the test solution overnight instead of 15 minutes. Visual observations were recorded at each cycle and pictures were taken under a microscope.
Sputum was dried for 4 hours instead of 2 hours in each cycle, and in the third cycle dried sputum was incubated with the test solution for only 15 minutes instead of an overnight incubation.
All the test solutions contained 0.85% of NaCl.

| Compound | Most effective concentration range |
| --- | --- |
| OCC(O)CO [glycerol] | 30-50% |
| dextran sulfate | 10-20% |
